Measurements: US9597364B2, “Treatment of withdrawal symptoms to aid in nicotine use cessation with Passiflora incarnata” (Campbell University, priority 2011, dated 2017)

Tests used:
[1] = tested on: Male Wistar rats; details: 0.4 mg/kg nicotine s.c.
Description: Male Wistar rats (Charles River, Raleigh, N.C.) were provided with food and water ad libitum on a 12 hour light/dark cycle for 2-3 weeks before beginning any treatments. For all experiments, rats were approximately 45-65 days old and weighed between 148 and 195 g at the beginning of an experiment. Injections of nicotine or its vehicle (water) were subcutaneous (s.c.) administered at 0.4 mg/kg nicotine (Sigma Aldrich, St. Louis, Mo.) and 2 ml/kg. Injections of aqueous passion flower extract (Nature's Answer, Hauppage, N.Y.) or vehicle (1:1 glycerin:water) were intraperitoneal (i.p.) administered at 800 mg/kg and 0.16 ml/kg.
Drug-naive rats were placed individually in an open field for determination of spontaneous activity using the Limelight video tracking system (ActiMetrics, Wilmette, Ill.). Each rat was monitored in the open field for 30 minutes to determine the time course of habituation. Immediately afterward, each rat was injected with vehicle that was subsequently used for nicotine injection at 2 ml/kg and the rats were monitored for 50 minutes. Then each rat was removed from the chamber briefly to be injected s.c. with 0.4 mg/kg nicotine and monitored for another 90 minutes.
Mean velocity (in cm/s) over each 1 sec period was extracted using the LimeLight software and that data was used to calculate the average and SEM of the mean velocities for each 5 minute interval for each treatment group. Figures show the time at the end of the 5 minute period (e.g., 10 minutes is the 5-10 minute interval). In the preliminary assay of nicotine versus vehicle, there were 6 rats and in the chronic nicotine study there were 8-10 rats in each group.

[2] = tested on: Male Wistar rats; test: Effect of passion flower extract on nicotine sensitization (expression of motor sensitization, open field); type: in vivo, rat; details: 0.4 mg/kg s.c. nicotine days 1-4, challenge day 5
Description: To produce nicotine sensitization, rats were injected once/day for 4 consecutive days with either nicotine or vehicle. On day 5, known as the test day, rats were divided into four groups; half of those that had received vehicle on days 1-4 were pre-treated with passion flower extract (vehicle-passion flower group) and the other half with vehicle (vehicle-vehicle group). Analogously, half of the rats that received nicotine on days 1-4 received a pre-treatment of i.p. 1:1 water:glycerin (nicotine-vehicle group) on day 5, while the other half was given a pre-treatment of i.p. passion flower extract (nicotine-passionflower group). Each rat was monitored in the open field for 100 consecutive minutes, starting approximately 23 hours after the day 4 nicotine treatment. Before any injections on day 5, rats were placed in the activity chambers until an injection of passion flower extract or vehicle at 25 minutes, then monitored for another 25 minutes, at which point all rats received an injection of nicotine and were monitored for 50 additional minutes.

## CN1CCCC1c1cccnc1 (stereo not shown) [nicotine]
[1]
  time of peak activity after injection: 5 to 15 min
[1]; intervals between 10 and 35 minutes except 15-20 minutes, 2-way ANOVA, Bonferroni p<0.05
  activity compared with vehicle treatment: significantly different from vehicle treatment
[1]; vehicle average 0.8±0.1 cm/s
  spontaneous activity (velocity) during the 10-35 minute intervals, average: 1.9±0.2 cm/s
[2]
  activity of nicotine-sensitized group (nicotine-vehicle) after challenge dose of nicotine, compared with vehicle-vehicle group: significantly greater activity than the vehicle-vehicle group
